The source of these data is patent publication US5646188A, “Polyamine derivatives of 1-aminoindan” (priority 1995, dated 1997).

SMILES strings stand for the structures. Where two headings read alike, the source gives them in different places.

For orientation: CC50 means the concentration that lowers cell viability or growth by half. A higher CC50 goes with lower toxicity to the cells.

The test system of data set [1] is ischemia induced nerve cell death. The note with it: gerbils; Gilad G et al.; cited from earlier work.
Data set [2] deals with Cultures of Dissociated Neonatal Rat Cerebellum. Briefly: Reversal of NMDA Induced Cell Death in cultures of dissociated neonatal rat cerebellum. Format: cell-based. The settings on record: for PERCENT PROTECTION: cell survival minus the NMDA effect (30%). As to the method: (§1) The cerebellum was aseptically dissociated from 6 or 7-day old rat pups and placed in a 15 ml sterile plastic conical tube containing 3 ml of Dulbecco's modified Eagle's medium (DMEM) with a high glucose concentration ([…]) and 2 mM (v/v) L-glutamine and an antibiotic antimitotic mixture. The cerebella were then dissociated after 20-25 passages through a sterile 13 gauge, 10 cm long stainless steel needle attached to a 5 ml syringe with an inserted 45 micrometer pore nylon sieve. The dissociated cells were centrifuged at 200 g for 5 minutes.
Cells were plated at a density of 200/mm^2 on poly-L-lysine coated surfaces. […] The plated cells were covered with enriched medium and incubated at 37° C. in an atmosphere of 5% CO2 in air and 97% humidity. […] Each test compound was tested in duplicate. Toxic-dose response was determined for each compound over a range from 0.005-1000 micromole. Four groups were run in each set of experiments;
I. Control, consisting of enriched media alone,
II. N-methyl-D-aspartate (NMDA, 1 mM for 3 hours) as the cytotoxic challenge,
III. Test compound plus NMDA, and
IV. Positive control, spermine, spermidine or putrescine (0.01 micromoles) plus NMDA.
Surviving cells in Culture are measured relative to control (100%) as described above. Percent protection is the Cell Survival for the test compound minus the NMDA effect. […] The Effective Protection was calculated as the percent of the Percent Protection (X) divided by the maximal protection value (e.g. X×100/70).

A further data set in a line: in vitro. The settings on record: rat, cerebellum cell culture. How it is done: as §1, with “minutes. […] Cell viability was determined by the tryptan blue exclusion test.” for “minutes.”
Cells were plated at a density of 200/mm^2 on poly-L-lysine coated surfaces. Poly-L-lysine coated glass coverslips were prepared at least one hour in advance of plating by immersing sterile coverslips in sterile distilled water solution containing 15 microgram/ml poly-L-lysine, and washing in sterile water just prior. to use. […] After three days in culture, the media was replaced with media containing the desired test compound. Each test compound was tested in duplicate. Toxic-dose response was determined for each compound over a range from 0.005-1000 micromole. Four groups were run in each set of experiments;
Nerve cell survival was evaluated by phase contrast microscopy and tryptan blue staining after 24 hours.
Toxic dose-response curves were compiled using the protocol described above.

Data set [3] has as its system pyramidal neurons throughout the CA1 layer of the anterior hippocampus. The data set can be described thus: Global Brain Ischemia In Gerbils. It counts as in vivo, mongolian gerbils. The settings on record: Meriones unguiculatus, Pyramidal neuron, 336 h, read-out: PERCENT PROTECTION
How it is done:
Male mongolian gerbils, aged 2.5-5 months, housed 4-8 in a cage, were supplied freely with food and water and maintained at 24° C. with a 12 hour day/night cycle.
For surgery the animals were anesthetized with halothane (1.5% in 100% O2) and the common carotid arteries exposed bilaterally through a midline ventral neck incision. Each artery was clamped for 5 minutes with aneurysm clips to produce global brain ischemia. The anesthesia was discontinued upon clamping. After 5 minutes the clamps were removed and the wound closed with skin clips.
For treatment, the test compound or vehicle was injected intra-peritoneally(ip) in a volume of 50 microlitres of solvent per 10 g body weight. The first injection was given two minutes after clamp removal, and thereafter daily for the next 2 post-operative days (total of 3 injections).
Seven groups each of 4-8 animals were compared:
I. Control; (sham- or unoperated and saline treated),
II. Vehicle treated, unoperated (when solvent is other than saline),
III. Ischemia--untreated or saline treated),
IV. Ischemia--vehicle treated (when solvent is other than saline),
V. Ischemia--Test compound treated, one sub-group per concentration tested,
VI. Ischemia and pentobarbital (40 mg/kg) as positive control).
Analysis of neuronal damage was performed 14 days post-ischemia by counting pyramidal neurons throughout the CA1 layer of the anterior hippocampus in […] thick (paraffin) coronal brain sections stained with hematoxylin and erosin.
Percent Protection values represent the fraction of hippocampi protected from ischemia in a group of animals treated with the stated dose of compound.

Data set [4] deals with voltage-sensitive calcium channel. The note with it: cited from earlier work.
The test system of a further data set is NMDA receptor. The note with it: cited from earlier work.
Setting [5] is: positive control, 0.01 micromoles + NMDA.
Where [6] appears, read: ip, 10.0 mg/kg ip, 3 daily injections, 14 days post-ischemia, fraction of hippocampi protected.

Consider `NCCCCNCCCN` [Spermidine, spermidine, reference compound], for which the “protecting against ischemia induced nerve cell death” value (shortened to “protecting”) in data set [1] is reported as “activity”. In data set [2] (Rattus norvegicus, positive control, 0.01 micromoles + NMDA (1 mM, 3 hours), 24 hours, read-out: SURVIVING CELL IN CULTURE (relative to control, 100%)), the viability at 0.01 µM came out at 78%. Moreover, the “PERCENT PROTECTION” value in data set [2] (setting [5]) amounted to 48%. The compound also had a CC50 at 24 h in the data set “in vitro” of 2000 nM. In data set [3] (setting [6]), the responders at 10 mg/kg came to 42%.
For `N=C(N)NCCCC(N)C(=O)NCCCNCCCN` (centres unmarked) [SFTX-33], the “voltage-sensitive calcium channel blocking” value in data set [4] is recorded as “voltage-sensitive calcium channel blockers”. Besides, in the data set with NMDA receptor, the “EAA antagonism / PCP site of NMDA receptor” value was “EAA antagonists capable of binding at the PCP site on the NMDA receptor”.
Turning to `NCCCCN` [Putrescine, putrescine, reference compound], in data set [1], the “protecting” value was “activity”. In data set [2] (setting [5]), the “PERCENT PROTECTION” value was found to be 0%. In “in vitro”, it took 300000 nM to reach half-maximal cytotoxicity (CC50 at 24 h). In addition, the responders at 10 mg/kg in data set [3] (10.0 mg/kg ip, 3 daily injections, 14 days post-ischemia, fraction of hippocampi protected) worked out at 41%.
For `NCCCNCCCCNCCCN` [Spermine, spermine, reference compound], the “protecting” value in data set [1] is given as “activity”. The “PERCENT PROTECTION” value in data set [2] (setting [5]) stood at 38%. In the data set “in vitro”, this compound had a CC50 at 24 h of 2000 nM. Moreover, the responders at 10 mg/kg in data set [3] (ip) worked out at 60%.
Take `N[C@@H]1C[C@@H](N)c2ccccc21` (relative stereo) [Compound 2716, trans 1,3-diaminoindan]: the “PERCENT PROTECTION” value is 35% in data set [2] (0.005 μM + NMDA), 0% in data set [2] (0.010 μM + NMDA), -5% in data set [2] (0.100 μM + NMDA) and 0% in data set [2] (1.000 μM + NMDA). The viability at 0.005 µM in data set [2] (Rattus norvegicus, 0.005 μM + NMDA (1 mM, 3 hours), 24 hours, read-out: SURVIVING CELL IN CULTURE (relative to control, 100%)) came to 65%. Besides, the viability at 0.01 µM in data set [2] (Rattus norvegicus, 0.010 μM + NMDA (1 mM, 3 hours), 24 hours, read-out: SURVIVING CELL IN CULTURE (relative to control, 100%)) amounted to 30%. In addition, the viability at 0.1 µM in data set [2] (Rattus norvegicus, 0.100 μM + NMDA (1 mM, 3 hours), 24 hours, read-out: SURVIVING CELL IN CULTURE (relative to control, 100%)) came to 25%. Moreover, the viability at 1 µM in data set [2] (Rattus norvegicus, 1.000 μM + NMDA (1 mM, 3 hours), 24 hours, read-out: SURVIVING CELL IN CULTURE (relative to control, 100%)) worked out at 30%. The compound further displayed a CC50 at 24 h in “in vitro” of 700 nM. The responders at 1 mg/kg in data set [3] (ip, 1.0 mg/kg ip, 3 daily injections, 14 days post-ischemia, fraction of hippocampi protected) worked out at 50%. In addition, the responders at 10 mg/kg in data set [3] (setting [6]) turned out to be 0%.
